These results are taken from patent US20080108085A1 (priority 2001, published 2008).

The assay has as its system surface-bound mouse prions (RML). The settings on record: for Incubation time s.d. / Sick/total: Table 4, infectious wires treated: sodium hydroxide 1M 1 h, formaldehyde 10% 1 h, guanidinium thiocyanate 4M 16 h, 25° C.; for Infectivity of treated prion-coated wires: sodium hydroxide 1 M 1 h, guanidinium thiocyanate 4 M 16 h, formaldehyde 10%.

Like-named read-outs stand apart in the source and are kept apart here.

In the case of `[Na+].[OH-]` [Sodium hydroxide], the Incubation time s.d. is listed as over 260 days, the Sick/total is 0/6 and the “Infectivity of treated prion-coated wires” value is “completely non-infectious”.

On to `C=O` [Formaldehyde], for which the Incubation time s.d. is reported as 92 ± 8 days and the Sick/total is listed as 6/6. Further, the Incubation time s.d. (listed as formaldehyde) stood at 92 ± 8 days.

`N#CS.N=C(N)N` [Guanidinium thiocyanate]: the Incubation time s.d. is over 260 days, the Sick/total is 0/6 and the “Infectivity of treated prion-coated wires” value is “completely non-infectious”.
